Results taken from patent US20210267996A1, “Compounds for inhibition of inflammation” (Children`s Medical Center Corporation, priority 2018, published 2021).
Entries after “also recorded” stand apart in the source; their conditions may differ.

Columns and labels:
caspase-1 = test: Caspase-1 activity assay in cells (FAM-YVAD-FMK); type: cell-based, human; settings: 30 μM, 30 min after nigericin
Procedure: Caspase-1 activity assay in cells: to measure caspase-1 activation, THP-1 cells were seeded into 96-well plates and differentiated with PMA. After the indicated treatments, cells were incubated with a fluorescent active caspase-1 substrate FAM-YVAD-FMK (Immunochemistry Technologies). Samples were read on a BioTek Synergy 2 plate reader.
(§1) Cell death was determined by CytoTox96 assay. […] Cell death was determined by CytoTox96 assay. […] Shown are immunoblots of whole cell lysates harvested 0.5 hr later. […] Representative images of ASC specks (arrowheads) and mean±s.d. percent of cells with ASC specks analyzed 20 min later (FIG. 47). Whole cell lysates (WCL) and culture supernatants (Sup) were harvested 30 min after adding nigericin and immunoblotted with the indicated antibodies (FIG. 50). Caspase-1 activity was assayed 30 min after adding nigericin using a cell-permeable fluorescence dye FAM-YVAD-FMK (FIG. 52). […] Representative images of ASC specks (arrowheads) and mean±s.d. percent of cells with ASC specks analyzed 20 min later (FIGS. 48 and 49). Whole cell lysates (WCL) and culture supernatants (Sup), harvested 30 min after adding nigericin, were analyzed by immunoblot (FIG. 51). […] The Figures show representative confocal microscopy images and quantification of proportion of cells with GSDMD membrane staining and pyroptotic bubbles. Arrows indicate GSDMD staining of pyroptotic bubbles. […] FIGS. 57 and 58, dose response curve of the effect of Bay 11-7082 on caspase-1 (FIG. 57) and caspase-11 (FIG. 58) activity against a fluorescent peptide substrate. […] (FIG. 60). FIGS. 61 and 62 show dose response curve of the effect of Bay 11-7082 on liposome leakage induced by 0.3 μM human GSDMD-3C (FIG. 61) or mouse GSDMA3-3C (FIG. 62) plus 0.15 μM 3C protease. […] 2-fold dilutions of Bay 11-7082 from 5-40 μM were used. Graphs show the mean±s.d; data are representative of three independent experiments. *P<0.05, **P<0.01.

[1] = test system: caspase-1, GSDMD, and pro-IL-1β; test: Caspase-1, GSDMD, pro-IL-1β cleavage and IL-1β secretion by immunoblot, THP-1; type: cell-based, human; settings: 30 μM; for caspase-1, GSDMD and pro-IL-1β cleavage: 30 min after nigericin
Procedure: Immunoblot analysis: cell extracts were prepared using RIPA buffer (50 mM Tris-HCl pH 7.4, 150 mM NaCl, 1 mM EDTA, 1% Triton X-100, 0.1% SDS, 0.5% deoxycholate) supplemented with a complete protease inhibitor cocktail (Roche) and a PhosSTOP phosphatase inhibitor cocktail (Roche). Samples were subjected to SDS-PAGE and the resolved proteins were then transferred to a PVDF membrane (Millipore). Immunoblots were probed with indicated antibodies and visualized using a SuperSignal West Pico chemiluminescence ECL kit (Pierce).
To assess which steps in NLRP3-mediated inflammation were inhibited post ASC speck formation, LPS-primed THP-1 cells were treated with vehicle or 30 μM z-VAD-fmk, disulfiram or Bay 11-7082 1 hr before adding nigericin, and cleavage and activation of caspase-1, GSDMD, and pro-IL-1β were analysed by immunoblot of whole cell lysates 30 min later (FIG. 50). Secretion of processed IL-1β was also assessed by immunoblot of culture supernatants. […] Because immunoblots are not quantitative, caspase-1 activity 30 min after adding nigericin was also assessed using a fluorescent substrate in intact cells. […] Next, the effect of z-VAD-fmk, disulfiram and Bay 11-7082 on LPS+nigericin-induced GSDMD pore formation was assessed by immunofluorescence microscopy using a monoclonal antibody that was generated that recognizes both uncleaved GSDMD and its pore form (FIGS. 53, 54, and 64-66). In the absence of any inhibitor, the GSDMD antibody stained both the cytosol and the plasma membrane of LPS plus nigericin treated cells, which formed characteristic pyroptotic bubbles (See Reference 10). […] Thus, disulfiram and Bay 11-7082 inhibit multiple steps leading to canonical inflammasome-induced pyroptosis and inflammatory cytokine release, including priming, inflammasome assembly, inflammatory caspase activation, pro-inflammatory cytokine processing and GSDMD pore formation.
as §1
Canonical inflammasome assembly activates caspase-1, which cleaves pro-IL-1β and GSDMD, and the latter is needed to release processed IL-1β and to induce pyroptosis. […]

Human GSDMD = molecular target: T1, Human GSDMD (Homo sapiens, UniProt P57764); test: Liposome leakage assay (Tb3+/DPA), GSDMD plus caspase-11; type: biochemical; settings: for IC50: WT GSDMD, caspase-11-triggered, read-out: IC50 of liposome leakage
T1 construct: His6-MBP (N, cleaved yes); made in house; host or cells: E. coli BL21 (DE3) for GSDMD; Sf9 for caspase-11
T1 sequence (P57764 1-484): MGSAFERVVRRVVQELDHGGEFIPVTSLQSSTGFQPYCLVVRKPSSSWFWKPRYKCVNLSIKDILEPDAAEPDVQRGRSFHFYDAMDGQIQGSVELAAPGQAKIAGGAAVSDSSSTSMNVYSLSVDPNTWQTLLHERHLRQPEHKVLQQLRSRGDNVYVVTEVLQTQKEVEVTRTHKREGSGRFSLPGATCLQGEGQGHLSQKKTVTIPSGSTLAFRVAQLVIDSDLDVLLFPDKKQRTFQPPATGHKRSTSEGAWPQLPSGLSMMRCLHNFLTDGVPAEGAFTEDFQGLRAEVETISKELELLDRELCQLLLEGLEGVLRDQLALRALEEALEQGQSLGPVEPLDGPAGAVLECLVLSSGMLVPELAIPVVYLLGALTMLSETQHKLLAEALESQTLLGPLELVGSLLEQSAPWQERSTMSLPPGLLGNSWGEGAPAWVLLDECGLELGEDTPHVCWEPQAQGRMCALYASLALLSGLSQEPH
Procedure: The lipid mixture was suspended in 1 mL Buffer A (20 mM HEPES, 150 mM NaCl, 50 mM sodium citrate, and 15 mM TbCl3) for 3 min. The suspension was pushed through 100 nm Whatman® Nuclepore™ Track-Etched Membrane 30 times to obtain homogeneous liposomes. The filtered suspension was purified by size exclusion column (Superose 6, 10/300 GL) in Buffer B (20 mM HEPES, 150 mM NaCl) to remove TbCl3 outside liposomes. […] The liposomes are diluted to 50 μM with Buffer C (20 mM HEPES, 150 mM NaCl and 50 μM DPA) for use in high-throughput screening.

CCN(CC)C(=S)SSC(=S)N(CC)CC [C-23, Tetraethylthiuram disulfide]
caspase-1 activity in intact cells (caspase-1): only partially reduced
caspase-1, GSDMD and pro-IL-1β cleavage ([1]; listed as disulfiram): dramatically reduced; also recorded: processing was reduced
processing of caspase-1, GSDMD and pro-IL-1β ([1]; 60 min after nigericin): caught up with what was detected in the absence of inhibitors
processed IL-1β in culture supernatants ([1]; listed as disulfiram): only detected in the culture supernatants in the absence of any inhibitor; also recorded: completely inhibited cytokine release
IC50 (Human GSDMD): ~0.3 µM
incubation time to inhibition of liposome leakage (Human GSDMD; time course, preincubation 2-90 min): ≤ 2 min
effect of copper gluconate (Cu2+) on inhibition of liposome leakage (Human GSDMD; with Cu2+): only weakly increased

Cc1ccc(S(=O)(=O)/C=C/C#N)cc1 [Bay 11-7082]
caspase-1 activity in intact cells (caspase-1): only partially reduced
processed IL-1β in culture supernatants [1]: only detected in the culture supernatants in the absence of any inhibitor
caspase-1, GSDMD and pro-IL-1β cleavage [1]: dramatically reduced
times less active than disulfiram at inhibiting liposome leakage (Human GSDMD; GSDMD plus caspase-11): 23 fold
IC50 (Human GSDMD): 6.81 ± 0.1 µM
